Test results from patent US12673925B2, “Compounds and compositions for eye treatments” (Avedro, Inc., priority 2018, dated 2026).

System: cornea of porcine whole globes
Experiment: Porcine eye corneal flattening assay
Settings: de-epithelialized porcine cornea; 0.11% w/v in saline; UVA 4 mm circle, 365 nm, 30 mW/cm^2, pulsed, 16.2 min, 15 J, 90%+ oxygen, 37.0° C.
Description: Protocol 1 (For Examples 8, 9, 10, 17, 18, 19, 20, 28, and 29): Porcine whole globes in saline at 4° C. were warmed to room temperature. […] The eye holders were then positioned inside an enclosed chamber that allows for the control of atmosphere, temperature and humidity (typically a water bath at 37.0° C.). IOP is maintained at a constant pressure by the insertion of a blood bank buffered saline line from an IV bag at a standard height inserted into each eye via a syringe needle. 5% Dextran T500 in blood bank buffered saline is dropped onto the surface of the cornea of each eye every 90 sec for 2 hours to allow the eyes to stabilize. […] The test eye is then orientated in a vertical position and the pre-treatment surface keratometry of the cornea measured using a Pentacam® HR device fine cornea 100 scan. […] After a further 1.5 hours during which the 5% dextran drops are resumed the eye is orientated back to the vertical position and the post-treatment surface keratometry of the cornea measured using a Pentacam® HR device fine cornea 100 scan as before. The difference map between the pre and post treatment corneal images is obtained and the overall change in keratometry (Km) of the central 3 mm zone recorded as a change in diopters. […]

For Cc1cc2nc(-c3nnnn3C)c(=O)n(C[C@H](O)[C@H](O)[C@H](O)CO)c2cc1C [Compound 40], the “Refractive Change (D)” value was −2.5 D.
